Assay results from PubChem BioAssay (NCI).
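How tested: cells in 96-well plates exposed to compound for 48 hours at five concentrations. GI50 = concentration required for 50% inhibition of growth. TGI denotes the concentration required for complete inhibition of growth.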

How the values were obtained:
Test in all cases: DTP human tumour cell line panel, 48 h; in the data active means GI50 below about 0.43 µM; inactive means the rest
[1] = system: 786-0 renal
[2] = system: A498 renal
[3] = system: A549 NSCLC
[4] = system: ACHN renal
[5] = system: BT-549 breast
[6] = system: CAKI-1 renal
[7] = system: CCRF-CEM leukemia
[8] = system: COLO 205 colon
[9] = system: DU-145 prostate
[10] = system: EKVX NSCLC
[11] = system: HCT-116 colon
[12] = system: HCT-15 colon
[13] = system: HL-60(TB) leukemia
[14] = system: HOP-62 NSCLC
[15] = system: HOP-92 NSCLC
[16] = system: HS 578T breast
[17] = system: HT29 colon
[18] = system: IGROV1 ovarian
[19] = system: K-562 leukemia
[20] = system: KM12 colon
[21] = system: LOX IMVI melanoma
[22] = system: M14 melanoma
[23] = system: MCF7 breast
[24] = system: MDA-MB-231 breast
[25] = system: MDA-MB-435
[26] = system: MOLT-4 leukemia
[27] = system: NCI-H226 lung
[28] = system: NCI-H460 lung
[29] = system: NCI-H522 lung
[30] = system: OVCAR-3 ovarian
[31] = system: OVCAR-4 ovarian
[32] = system: OVCAR-8 ovarian
[33] = system: PC-3 prostate
[34] = system: RPMI-8226 leukemia
[35] = system: SF-268 CNS
[36] = system: SF-295 CNS
[37] = system: SF-539 CNS
[38] = system: SK-MEL-2 melanoma
[39] = system: SK-MEL-28 melanoma
[40] = system: SK-MEL-5 melanoma
[41] = system: SK-OV-3 ovarian
[42] = system: SN12C renal
[43] = system: SNB-19 CNS
[44] = system: SNB-75 CNS
[45] = system: SR leukemia
[46] = system: SW-620 colon
[47] = system: T-47D breast
[48] = system: TK-10 renal
[49] = system: U251 CNS
[50] = system: UACC-257 melanoma
[51] = system: UACC-62 melanoma
[52] = system: UO-31 renal

O=C(Nc1cc(C(F)(F)F)ccc1Cl)c1cccc(NC2=C(Cl)C(=O)N(Cc3ccccc3)C2=O)c1
9.23 µM: TGI [13]
> 100 µM: TGI [1] | TGI [3] | TGI [4] | TGI [5] | TGI [6] | TGI [7] | TGI [8] | TGI [9] | TGI [10] | TGI [11] | TGI [12] | TGI [14] | TGI [15] | TGI [16] | TGI [17] | TGI [18] | TGI [19] | TGI [20] | TGI [21] | TGI [22] | TGI [24] | TGI [25] | TGI [26] | TGI [27] | TGI [28] | TGI [30] | TGI [31] | TGI [32] | TGI [33] | TGI [35] | TGI [36] | TGI [38] | TGI [39] | TGI [40] | TGI [41] | TGI [42] | TGI [43] | TGI [44] | TGI [46] | TGI [47] | TGI [48] | TGI [49] | TGI [50] | TGI [51]
45.3 µM: TGI [29]
inactive: GI50 [1] 38.5 µM | GI50 [2] 28.5 µM | GI50 [3] 72.8 µM | GI50 [4] 99.9 µM | GI50 [5] 15.6 µM | GI50 [6] 89.3 µM | GI50 [7] 2.71 µM | GI50 [8] 41.5 µM | GI50 [9] 54.4 µM | GI50 [10] 53 µM | GI50 [11] 10.3 µM | GI50 [12] 23.5 µM | GI50 [13] 3.52 µM | GI50 [14] > 100 µM | GI50 [15] 19.1 µM | GI50 [16] 53.7 µM | GI50 [17] 43.1 µM | GI50 [18] 2.81 µM | GI50 [19] 4.23 µM | GI50 [20] 52.9 µM | GI50 [21] 5.65 µM | GI50 [22] 82.6 µM | GI50 [23] 5.76 µM | GI50 [24] 32.7 µM | GI50 [25] 15.7 µM | GI50 [26] 2.19 µM | GI50 [27] 17.6 µM | GI50 [28] 38.2 µM | GI50 [29] 6.8 µM | GI50 [30] 34.3 µM | GI50 [31] > 100 µM | GI50 [32] 47.6 µM | GI50 [33] 14.1 µM | GI50 [34] 2.92 µM | GI50 [35] 29.2 µM | GI50 [36] 29.1 µM | GI50 [37] 26.4 µM | GI50 [38] 30.8 µM | GI50 [39] > 100 µM | GI50 [40] 12.8 µM | GI50 [41] > 100 µM | GI50 [42] 32.1 µM | GI50 [43] > 100 µM | GI50 [44] > 100 µM | GI50 [45] 1.26 µM | GI50 [46] 52.7 µM | GI50 [47] 81.1 µM | GI50 [48] 34.2 µM | GI50 [49] 11.1 µM | GI50 [50] 53.7 µM | GI50 [51] 26.5 µM | GI50 [52] 0.7 µM
85.6 µM: TGI [23]
3.16 µM: TGI [45]
50 µM: TGI [34]
92.9 µM: TGI [2]
53.7 µM: TGI [37]
58.2 µM: TGI [52]
